What was measured:
[1] = tested on: HMGB1 released from keratinocytes exposed to UVB; test: In Vitro UV Stress Test (HMGB1 ELISA); format: cell-based, human; settings: for amount of HMGB1 released compared to untreated UVB exposed cells: UVB exposed keratinocytes, 0.001 w/v %
Description: Human neonatal keratinocytes (available from Thermo) were placed in each well of 4 12-well plates. Each well also contained 2 ml of EPILIFE brand keratinocyte medium. The plates were incubated at 37° C. in a CO2 incubator until cell confluency reached 70%. At this point, the cells, except for the negative control, were exposed to 15 mJ/cm^2 UVB (i.e., UV radiation with a wavelength of from 315-280 nm) in a BIO-SUN brand UV irradiating system (available from Vilber Lourmat, France). After UVB exposure, the keratinocyte medium in each well was replaced with an appropriate medium (i.e., niacinamide medium, nicotinamide riboside medium or a control medium) to produce the test plates. The test plates were incubated for 24 hours at 37° C. in a CO2 incubator, after which the medium in each cell was removed and the HMGB1 level measured using a conventional HMGB1 ELISA kit (REF #ST51011, available from IBL International, Canada) according to the manufacturer's instructions. The test media were made by adding either niacinamide or nicotinamide riboside to EPILIFE brand keratinocyte medium to produce a 0.001 w/v % solution. The control medium was unmodified keratinocyte medium.

[2] = tested on: human neonatal keratinocytes; test: Melanosome Uptake Assay; format: cell-based
Description: Carboxyfluorescein diacetate (“CFDA”) (available from Sigma, St. Louis, Mo.) labeled melanosomes were prepared by incubating CFDA dye in SKMEL-188 culture cells (available from Sloan Kettering Institute) for 2 days at 37° C. in a THERMO SCIENTIFIC FORMA brand CO2 incubator (available from Fisher Scientific, Waltham, Mass.). On day 3 of the test, melansomes were isolated from SKMEL-188 cells by step density centrifugation with sucrose solutions layered with different densities, which is well known in the art. Melanosomes were taken from the 1.6 M-2.0 M sucrose layers. The isolated melanosomes were placed in each well of a 6-well plate along with human neonatal keratinocytes (available from Thermo) (approximately 50,000 keratinocytes/well). 2 ml of the appropriate medium (i.e., the test composition, the positive control or the vehicle control) was added to each of the wells to produce […] (i.e., 3 replicates of each of three composition tested). The test composition was made by adding nicotinamide riboside chloride powder (available from Chromadex, Irvine, Calif.) to EPILIFE brand keratinocyte medium to produce a solution of 0.0025 w/v % nicotinamide riboside. The positive control was made by adding niacinamide to EPILIFE brand keratinocyte medium to produce a solution of 0.0025 w/v % niacinamide. Unmodified keratinocyte medium was used as a vehicle control. The resulting test plates were incubated for two days in EPILIFE brand keratinocyte medium. On day 6 of the test, the keratinocytes were detached from the plates using trypsin and fluorescent-label counted by flow cytometry using an LSRFortessa brand flow cytometer (available from Becton Dickinson, NJ). The percentage of cells that had fluorescence (from CFDA label) was used as a metric to measure incorporation of melanosome uptake. Keratinocytes containing detectable levels of CFDA were counted as a fraction of all keratinocytes passing through the flow cytometer (indicated as % uptake in Table 2). The higher the percentage, the higher level of melanosome uptake into the keratinocytes.

[3] = tested on: pigmented spots in facial skin; test: Oral nicotinamide riboside, appearance of pigmented spots after cessation of the treatment period; format: in vivo; settings: oral composition
Source text: In some instances, the method herein includes identifying a target portion of facial skin in need of treatment and orally ingesting a safe and effective amount of nicotinamide riboside over the course of a multi-day, or multi-week, or multi-month, or multi-year treatment period. Nicotinamide riboside may be incorporated into a suitable oral composition. The target portion of facial skin is any portion of facial skin (e.g., periorbital, cheek, chin, perioral, nose, forehead, etc.) where improvement in the appearance of skin is desired (e.g., reduction in size and/or increase in lightness of hyperpigmented spot). […] In this way, the present compositions may be used as a preventative measure for skin pigmentation disorders. The oral composition may be ingested one time per day, two times per day, three times per day (e.g., around each meal), four times per day or more during the treatment period. The daily dosage of nicotinamide riboside may be greater than 100 mg, preferably greater than 250 mg, more preferably greater than 300 mg, most preferably greater than 400 mg or 500 mg. The weekly dosage may be greater than 2100 mg/week, 2800 mg/week, or 3500 mg/week. The daily dosage may be provided in a single unit dosage form (e.g., a single pill, capsule or tablet) or may be provided in smaller unit dosage forms if the oral composition is intended to be taken more than once per day. […]

Compound	HMGB1 Released ([1]; UV exposure 15 mJ/cm^2 UVB, 0.001% in medium, 24 hours) [pg/mL]	rate of melanosome uptake compared to the vehicle control ([2]; 0.0025 w/v %)	% Uptake ([2]; 0.0025 w/v % in keratinocyte medium, fraction of keratinocytes with detectable CFDA-labeled melanosomes, flow cytometry) [%]	Rate of Melanosome Uptake Versus Control ([2]; 0.0025 w/v %, vehicle control = 100%) [%]	amount of HMGB1 released compared to untreated UVB exposed cells [1]	time after cessation of the treatment period to regression to baseline in the appearance of the pigmented spots [3] [weeks]
NC(=O)c1ccc[n+]([C@@H]2O[C@H](CO)[C@@H](O)[C@H]2O)c1.[Cl-] [Nicotinamide Riboside Chloride, nicotinamide riboside chloride]	11.5					
Nicotinamide riboside		increase the rate of melanosome uptake	67	186	released less HMGB1	≤ 2
NC(=O)c1cccnc1 [Niacinamide, niacinamide, reference compound]		inhibit the rate of melanosome uptake			no significant effect	
